# Laboratory results as given in article PMC5088614 (PeerJ, 2016).
# Several values for one entry are separate records, joined by “and”; a condition that tells them apart may be missing. Identical values can stand only once. Entries after “also recorded” stand apart in the source; their conditions may differ. Like-named read-outs stand apart in the source and are kept apart here. Positions of bridges follow the written chain, without caps; N, C: chain ends. Residues, ends and D or L forms follow the SMILES beside them.
# Columns and labels:
# [1] = tested on: Escherichia coli (ATCC 29522)
# [2] = tested on: B. pseudomallei strain K96243 and clinical strains UMC031, UMC080, UMC089; conditions: for MIC, B. pseudomallei (average): 24 h
# [3] = tested on: E. coli; type: cell-based, Escherichia coli
# [4] = tested on: B. pseudomallei isolates; type: cell-based, Burkholderia pseudomallei
# [5] = tested on: A549, HEPG2 and AGS cells
# [6] = tested on: human gastric adenocarcinoma (AGS) cells
# [7] = tested on: human lung epithelial (A549) cells
# [8] = tested on: human hepatocellular carcinoma (HepG2) cells
# [9] = tested on: B. pseudomallei K96243 biofilm; type: cell-based, Burkholderia pseudomallei; parameters: Mean Diff., Untreated vs treated, Dunnett's Multiple Comparison Test (data for figure 2): unit not given here
# [10] = tested on: human hepatocellular carcinoma (HepG2) cells; conditions: cited from earlier work
# [11] = tested on: human gastric adenocarcinoma (AGS) cells; conditions: cited from earlier work
# [12] = tested on: human lung epithelial (A549) cells; conditions: cited from earlier work
# [13] = tested on: B. pseudomallei strain K96243; type: cell-based, Burkholderia pseudomallei
# [14] = tested on: B. pseudomallei strains used in the preliminary study; type: cell-based, Burkholderia pseudomallei
# [15] = tested on: B. pseudomallei biofilm; conditions: cited from earlier work
# [16] = tested on: E.coli ATCC 25922; type: cell-based, Escherichia coli
# [17] = tested on: B. pseudomallei K96243; type: cell-based, Burkholderia pseudomallei
compound,measurement,setting,value
"CC(C)C[C@H](NC(=O)[C@H](CCCNC(=N)N)NC(=O)CNC(=O)CNC(=O)[C@@H](N)CCCNC(=N)N)C(=O)N[C@H]1CSSC[C@@H](C(=O)N[C@H](C(=O)NCC(=O)N[C@@H](CCCNC(=N)N)C(N)=O)C(C)C)NC(=O)[C@H](C(C)C)NC(=O)[C@@H]2CSSC[C@H](NC(=O)[C@H](Cc3ccc(O)cc3)NC1=O)C(=O)N[C@@H](CCCNC(=N)N)C(=O)N[C@@H](CCCNC(=N)N)C(=O)N[C@@H](CCCNC(=N)N)C(=O)N[C@@H](Cc1ccccc1)C(=O)N2 [PG1, Protegrin 1]","MIC, E.coli (ATCC 29522)",[1]; 37 °C 24 h,5.8 ± 1.09E-15 μM
same,"MIC, B. pseudomallei (average)",[2],15.46 ± 5.02 µM
same,"Susceptibility of strain to AMP (S/R), preliminary study",[3],S
same,B. pseudomallei isolates susceptible to the AMP,[4],100%
same,"Mean Diff., 0 vs comparator, Dunnett's Multiple Comparison Test (MTT)",[5],96.14
same,"percentage of viable cells, AGS","[6]; 2 h, 115 μM",3.0%
same,"percentage of viable cells, A549","[7]; 2 h, 115 μM",3.3%
same,"percentage of viable cells, HEPG2","[8]; 2 h, 115 μM",5.0%
same,"Mean Diff., Untreated vs treated, Dunnett's Multiple Comparison Test (data for figure 2)",[9],6.743
same,reduction of surviving bacteria in biofilm state compared to the untreated (significance),[9],significant reduction
same,surviving bacteria in biofilm state 24 h post exposure,[9],1.1 log CFU/biofilm
same,cytotoxicity against Hep G2,[10],cytotoxic
CC[C@H](C)[C@H](NC(=O)[C@H](CCCCN)NC(=O)[C@H](CCC(=O)O)NC(=O)[C@H](CCCCN)NC(=O)[C@H](CO)NC(=O)[C@H](CCCCN)NC(=O)[C@H](CCCNC(=N)N)NC(=O)[C@H](Cc1ccccc1)NC(=O)[C@H](Cc1ccccc1)NC(=O)[C@H](CC(=O)O)NC(=O)CNC(=O)[C@H](CC(C)C)NC(=O)[C@@H](N)CC(C)C)C(=O)NCC(=O)N[C@@H](CCCCN)C(=O)N[C@@H](CCC(=O)O)C(=O)N[C@@H](Cc1ccccc1)C(=O)N[C@@H](CCCCN)C(=O)N[C@@H](CCCNC(=N)N)C(=O)N[C@H](C(=O)N[C@H](C(=O)N[C@@H](CCC(N)=O)C(=O)N[C@@H](CCCNC(=N)N)C(=O)N[C@H](C(=O)N[C@@H](CCCCN)C(=O)N[C@@H](CC(=O)O)C(=O)N[C@@H](Cc1ccccc1)C(=O)N[C@@H](CC(C)C)C(=O)N[C@@H](CCCNC(=N)N)C(=O)N[C@@H](CC(N)=O)C(=O)N[C@@H](CC(C)C)C(=O)N[C@H](C(=O)N1CCC[C@H]1C(=O)N[C@@H](CCCNC(=N)N)C(=O)N[C@H](C(=O)N[C@@H](CCC(=O)O)C(=O)N[C@@H](CO)C(=O)O)[C@@H](C)O)C(C)C)[C@@H](C)CC)C(C)C)[C@@H](C)CC [LL-37],"MBC, E.coli (ATCC 29522)","[1]; ATCC 29522, 24 h",14.8 ± 6.42 µM
same,"MIC, E.coli (ATCC 29522)","[1]; ATCC 29522, 24 h",14.8 ± 6.42 µM
same,cytotoxicity to AGS,[11],cytotoxic
same,cytotoxicity to A549,[12],cytotoxic
"CC(C)(O/N=C(\C(=O)N[C@@H]1C(=O)N2C(C(=O)[O-])=C(C[n+]3ccccc3)CS[C@H]12)c1csc(N)n1)C(=O)O [CAZ, ceftazidime]",time after exposure to growth inhibition / bactericidal endpoint,[13],8 h
same,Antibiotic susceptibility by disk diffusion,[14],R and S
same,concentration with anti-B. pseudomallei biofilm / biofilm inhibition activity,[15],936 µM
same,"Mean Diff., 0 vs comparator, Dunnett's Multiple Comparison Test (MTT)",[5],13.7
same,"Mean Diff., Untreated vs treated, Dunnett's Multiple Comparison Test (data for figure 2)",[9],7.842
same,reduction of surviving bacteria in biofilm state compared to the untreated (significance),[9],significant reduction
same,inhibition of bacteria in biofilm state compared to untreated,[9]; 24 h,complete inhibition
same,Antibiotic susceptibility by disk diffusion,[16],S
"C[C@@H](O)[C@H]1C(=O)N2C(C(=O)O)=C(S[C@@H]3CN[C@H](C(=O)N(C)C)C3)[C@H](C)[C@H]12 [MRP, meropenem]",Antibiotic susceptibility by disk diffusion,[14],S
same,"Mean Diff., 0 vs comparator, Dunnett's Multiple Comparison Test (MTT)",[5],11.53
same,"Mean Diff., Untreated vs treated, Dunnett's Multiple Comparison Test (data for figure 2)",[9],7.842
same,reduction of surviving bacteria in biofilm state compared to the untreated (significance),[9],significant reduction
same,inhibition of bacteria in biofilm state compared to untreated,[9]; 24 h,complete inhibition
same,Antibiotic susceptibility by disk diffusion,[16],S
C[C@@H](O)[C@H]1C(=O)N2C(C(=O)O)=C(SCCN=CN)C[C@H]12 [IMI],Antibiotic susceptibility by disk diffusion,[14],S
same,Antibiotic susceptibility by disk diffusion,[16],S
GIGKFLHSAKKFGKAFVGEIMNS [Magainin 2],"Susceptibility of strain to AMP (S/R), preliminary study",[3],S
same,"Susceptibility of strain to AMP (S/R), preliminary study",[4],R
same,"Mean Diff., Untreated vs treated, Dunnett's Multiple Comparison Test (data for figure 2)",[9],0.2494
CN(C)c1cc(NC(=O)CNC(C)(C)C)c(O)c2c1C[C@H]1C[C@H]3[C@H](N(C)C)C(O)=C(C(N)=O)C(=O)[C@@]3(O)C(O)=C1C2=O [TGC],Antibiotic susceptibility by disk diffusion,[14],R and S
O=C(N[C@H](CO)[C@H](O)c1ccc([N+](=O)[O-])cc1)C(Cl)Cl [C],Antibiotic susceptibility by disk diffusion,[14],S and R
same,Antibiotic susceptibility by disk diffusion,[16],S
HAEHKVKIGVEQKYGQFPQGTEVTYTCSGNYFLM [Sushi 3],"Susceptibility of strain to AMP (S/R), preliminary study",[3],S
same,"Susceptibility of strain to AMP (S/R), preliminary study",[4],R
same,"Mean Diff., Untreated vs treated, Dunnett's Multiple Comparison Test (data for figure 2)",[9],0.04165
Ornithine,"Susceptibility of strain to AMP (S/R), preliminary study",[3],S
same,"Susceptibility of strain to AMP (S/R), preliminary study",[4],R
C[C@H]1c2cccc(O)c2C(O)=C2C(=O)[C@]3(O)C(O)=C(C(N)=O)C(=O)[C@@H](N(C)C)[C@@H]3[C@@H](O)[C@@H]21 [DXT],Antibiotic susceptibility by disk diffusion,[14],S
same,Antibiotic susceptibility by disk diffusion,[16],S
O=C(O)c1cn(C2CC2)c2cc(N3CCNCC3)c(F)cc2c1=O [CIP],Antibiotic susceptibility by disk diffusion,[16],S
"CC[C@H](C)[C@@H]1NC(=O)CNC(=O)[C@H](CCCNC(=N)N)NC(=O)[C@H](Cc2ccc(O)cc2)NC(=O)[C@@H]2CSSC[C@H](NC1=O)C(=O)N[C@@H](Cc1ccc(O)cc1)C(=O)N[C@@H](CCCNC(=N)N)C(=O)N[C@@H](CCCNC(=N)N)C(=O)N[C@H](C(=O)N[C@@H](CCCNC(=N)N)C(N)=O)CSSC[C@H](NC(=O)[C@H](Cc1c[nH]c3ccccc13)NC(=O)[C@@H](N)CCCCN)C(=O)N[C@@H](Cc1ccccc1)C(=O)N[C@@H](CCCNC(=N)N)C(=O)N[C@@H](C(C)C)C(=O)N2 [TP1, Tachyplesin 1] (H-KWCFRVCYRGICYRRCR-NH2; disulfide 3-16, 7-12)",concentration inhibiting B. pseudomallei K96243 growth,[13],> 55 µM
same,time after exposure to growth inhibition,[13],following eight hours of exposure
same,viable bacteria at 24 h,[13],9.96 log CFU/ml
same,cell morphology by SEM,[17],membrane blebbing; also recorded: corrugated with dimples on the surface
same,"MBC, E.coli (ATCC 29522)","[1]; ATCC 29522, 24 h",22.1 ± 0 µM
same,"MIC, E.coli (ATCC 29522)","[1]; ATCC 29522, 24 h",22.1 ± 0 µM
same,"MBC, B. pseudomallei (average)",[2]; 37 °C 24 h,193.35 ± 2.00E-14 μM
same,"MIC, B. pseudomallei (average)",[2],61.69 ± 6.38 µM
same,"Susceptibility of strain to AMP (S/R), preliminary study",[3],S
same,B. pseudomallei isolates susceptible to the AMP,[4],83%
same,"Susceptibility of strain to AMP (S/R), preliminary study",[4],S and R
same,"MTT, mean over the lower concentrations",[6],87.0414
same,"percentage of viable cells, AGS","[6]; 2 h, 2.7 μM",85.1%
same,"percentage of viable cells, AGS","[6]; 2 h, 48.6 μM",80%
same,"percentage of viable cells, AGS","[6]; 24 h, 22.3 μM",90.0 ± 8.4%
same,"MTT, mean over the lower concentrations",[7],86.0736
same,"MTT, mean over the lower concentrations",[8],91.041
same,MBEC,[9],not achieved
same,"Mean Diff., 0 vs concentration (Bonferroni's test)",[9],4.116 and 4.208
same,"Mean Diff., Untreated vs treated, Dunnett's Multiple Comparison Test (data for figure 2)",[9],3.641
same,concentration of maximum inhibition of cells in biofilm state,[9],442 µM
same,concentration reducing the number of B. pseudomallei in biofilm state,[9],above 55 μM
same,inhibition activity of TP1 higher than LL-37,[9],approximately 2.0 log
same,inhibition activity of TP1 lower than PG1,[9],3.5 log
same,log reduction of bacteria in biofilm state,[9],1.0 log and 1.3 log
same,reduction of surviving bacteria in biofilm state compared to the untreated (significance),[9],significant reduction
same,surviving bacteria in biofilm state,[9],~4.00 log CFU/biofilm
same,surviving bacteria in biofilm state 24 h post exposure,[9],4.2 log CFU/biofilm
same,surviving bacteria in biofilm state at the end of the TP1 concentration series,[9]; 24 h,3.6 log CFU/biofilm
GFKLKGMARISCLPNGQWSNFPPKCIRECA [Sushi 1],"Susceptibility of strain to AMP (S/R), preliminary study",[3],S
same,"Susceptibility of strain to AMP (S/R), preliminary study",[4],R
same,"Mean Diff., Untreated vs treated, Dunnett's Multiple Comparison Test (data for figure 2)",[9],0.04572
